Source: patent US12344631B2, “C17 polar-substituted heteroaromatic synthetic triterpenoids and methods of use thereof” (REATA PHARMACEUTICALS, INC., priority 2019, dated 2025)

Key:
[1] = system: AML-12 hepatocyte cell line; assay: Glutathione assay (total glutathione, GSH-Glo); type: cell-based, mouse; settings: for EC50: Mus musculus, AML12, AML-12 cells, 24 hours, total glutathione, read-out: GSH EC50 (nM) (Mean ± SD); for GSH EC50 Relative to RTA 402 (fold) (Mean ± SD): benchmark RTA 402
Protocol: The effect of compound treatment on total glutathione levels was evaluated in the mouse AML-12 hepatocyte cell line. Glutathione—a tripeptide consisting of cysteine, glutamate, and glycine—is the major thiol-containing protein within the cell and regulates cellular redox balance. Glutathione also plays important roles in detoxification, protein glutathionylation, and iron-sulfur cluster biogenesis (Bachhawat and Yadav, 2018). Nrf2 regulates the expression of many genes involved in glutathione synthesis and metabolism, including both subunits of glutamate cysteine ligase (GCL), the enzyme that catalyzes the rate limiting step of glutathione biosynthesis (Thimmulappa et al., 2002). […] The next day, cells were treated with vehicle (DMSO) or test compound (0.03 nM to 1000 nM). Each well received a final concentration of 0.1% DMSO. Cells were incubated at 37° C., 5% CO2 for 24 hours. Total glutathione concentrations were measured using the GSH-Glo Glutathione Assay kit (Promega) according to the manufacturer's instructions. Briefly, a standard curve was prepared by serially diluting the provided glutathione solution. […] After a 30-minute incubation at room temperature, 100 μL of Luciferin detection reagent was added to all sample and standard wells and incubated for 15 minutes. Luminescence was measured using a PHERAstar plate reader. The EC50 value was determined using Excel and GraphPad Prism software. The basal concentration of glutathione was set to 0% and the highest concentration of glutathione produced following treatment with a test compound was set to 100% and a dose-response curve was generated. The dose-response curve was fit using nonlinear regression analysis and used to extrapolate the EC50 value.

[2] = biological target: CYP3A4 (Homo sapiens, UniProt P08684); assay: CYP3A4 (midazolam) inhibition in human liver microsomes; settings: for inhibition at 10 min, 1 μM: human, probe midazolam (5 μM); for inhibition at 10 min, 1 μM / CYP3A4 (Midazolam) % Inhibition: human liver microsomes; for CYP3A4 inhibition compared with historical data for RTA 402 and RTA 408: comparable conditions (FIG. 1); for CYP3A4 inhibition lower than the corresponding unsubstituted compound: vs CC2, CC1 or CC3; for CYP3A4 inhibition lower than the corresponding unsubstituted compound / CYP3A4 (Midazolam) % Inhibition: 1 μM; for CYP3A4 (Midazolam) % Inhibition: historical data performed under comparable conditions
[3] = system: AREc32 reporter cell line (antioxidant response element of rat Gsta2, Nrf2 target gene); assay: AREc32 luciferase reporter activation; type: cell-based, human; settings: for AREc32 EC2X Relative to RTA 402 (fold) (Mean ± SD): average of ratios from replicate experiments, benchmark RTA 402; for AREc32 Relative to CC in Same Experiment (Mean ± SD): average of ratios from experiments with direct comparisons; for EC (2-fold): human, Arec32, 19 h, concentration increasing luminescence signal 2-fold above vehicle, nineteen hours, read-out: AREc32 EC2X (nM) (Mean ± SD)
Protocol: […] The effect of several compounds disclosed herein on luciferase reporter activation was assessed in the AREc32 reporter cell line (see Table 10 and Table 11). This cell line is derived from human breast carcinoma MCF-7 cells and is stably transfected with a luciferase reporter gene under the transcriptional control of eight copies of the antioxidant response element from the rat Gsta2 gene, an Nrf2 target gene ([…] et al., 1990). […] Twenty-four hours after plating, cells were treated with vehicle (DMSO) or test compounds at concentrations ranging from 0.03 to 1000 nM for nineteen hours. Media was removed and 100 μL of 1:1 mixture of the One-Glo Luciferase assay reagent and culture medium was added to each well. After incubation for 5 min at room temperature, the luminescence signal was measured on a PHERAstar plate reader. The EC2X value was determined using Excel and GraphPad Prism software. The fold increase in luminescence signal for cells treated with each concentration of compound relative to cells treated with vehicle was determined and a dose-response curve was generated. The dose-response curve was fit using nonlinear regression analysis and used to extrapolate the EC2X value.

[4] = system: RAW 264.7 cells; assay: Nitric oxide suppression assay (IFNγ-induced NO production); type: cell-based, mouse; settings: for IC50: Mus musculus, RAW264.7, RAW 264.7 cells, 2 h pretreatment, 20 ng/mL interferon gamma 24 h, nitrite by Griess, read-out: NO IC50 (nM) (Mean ± SD); for NO IC50 Relative to RTA 402 (fold) (Mean ± SD): average of ratios from replicate experiments, benchmark RTA 402
Procedure, shortened: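 Mouse RAW 264.7 macrophages in RPMI 1640 with 0.5% FBS were pretreated with compounds for 2 h at 37° C (0.1% DMSO final), then stimulated with 20 ng/mL IFNγ for 24 h. Nitrite in the supernatant was read at 525 nm against standards and normalized to DMSO/IFNγ wells. IC50 values were fitted with dependence on WST-1 viability.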

Chain of CYP3A4 (P08684 whole entry): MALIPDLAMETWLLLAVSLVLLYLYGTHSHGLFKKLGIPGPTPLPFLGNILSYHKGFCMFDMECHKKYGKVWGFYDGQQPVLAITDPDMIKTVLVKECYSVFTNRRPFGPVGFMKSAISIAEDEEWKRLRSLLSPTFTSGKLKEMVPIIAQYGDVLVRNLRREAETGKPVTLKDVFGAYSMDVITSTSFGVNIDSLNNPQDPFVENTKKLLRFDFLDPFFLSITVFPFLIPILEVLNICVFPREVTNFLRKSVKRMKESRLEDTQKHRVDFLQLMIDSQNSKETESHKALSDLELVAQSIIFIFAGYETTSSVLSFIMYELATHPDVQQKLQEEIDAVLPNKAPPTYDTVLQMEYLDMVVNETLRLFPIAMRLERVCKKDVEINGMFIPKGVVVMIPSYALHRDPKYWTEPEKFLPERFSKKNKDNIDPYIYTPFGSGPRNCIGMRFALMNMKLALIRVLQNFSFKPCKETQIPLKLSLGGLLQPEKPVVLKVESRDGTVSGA

Structure (SMILES)	EC50 [1]	GSH EC50 Relative to RTA 402 (fold) (Mean ± SD) [1]	inhibition at 10 min, 1 μM [2]	AREc32 EC2X Relative to RTA 402 (fold) (Mean ± SD) [3]	AREc32 Relative to CC in Same Experiment (Mean ± SD) ([3]; comparison compound CC1)	EC (2-fold) [3]	IC50 [4]	NO IC50 Relative to RTA 402 (fold) (Mean ± SD) [4]	AREc32 Relative to CC in Same Experiment (Mean ± SD) ([3]; comparison compound CC2)	AREc32 Relative to CC in Same Experiment (Mean ± SD) ([3]; comparison compound CC3)	CYP3A4 inhibition compared with historical data for RTA 402 and RTA 408 [2]	CYP3A4 inhibition lower than the corresponding unsubstituted compound [2]	CYP3A4 (Midazolam) % Inhibition [2]
Cc1nnc([C@]23CCC(C)(C)C[C@H]2[C@H]2C(=O)C=C4[C@@]5(C)C=C(C#N)C(=O)C(C)(C)[C@@H]5CC[C@@]4(C)[C@]2(C)CC3)o1 [CC1, reference compound]	1.09 ± 0.13 nM	0.70 ± 0.12 fold	20.7%	0.79 ± 0.24 fold	1.00	10.6 ± 2.73 nM	2.05 nM	0.78 ± 0.10 fold					
Cc1noc([C@]23CCC(C)(C)C[C@H]2[C@H]2C(=O)C=C4[C@@]5(C)C=C(C#N)C(=O)C(C)(C)[C@@H]5CC[C@@]4(C)[C@]2(C)CC3)n1 [CC2, reference compound]	2 ± 1.24 nM	0.80 ± 0.16 fold	45.8%	0.74 ± 0.16 fold		8.59 ± 1.88 nM	1.98 nM	0.70 ± 0.18 fold	1.00				
Cc1noc([C@]23CCC(C)(C)C[C@H]2[C@H]2C(=O)C=C4[C@@]5(C)C=C(C#N)C(=O)[C@@H](C)[C@@H]5CC[C@@]4(C)[C@]2(C)CC3)n1 [CC3, reference compound]	1.16 ± 0.53 nM	0.43 ± 0.14 fold	37.7%	0.66 ± 0.21 fold		7.11 ± 1.15 nM	1.34 nM	0.40 ± 0.06 fold		1.00			
CC1(C)CC[C@]2(c3noc(CF)n3)CC[C@]3(C)[C@H](C(=O)C=C4[C@@]5(C)C=C(C#N)C(=O)C(C)(C)[C@@H]5CC[C@]43C)[C@@H]2C1 [Compound T1]	0.57 ± 0.22 nM	0.35 ± 0.12 fold	29.1%	0.46 ± 0.13 fold		6.2 ± 1.37 nM	1.24 nM	0.52 ± 0.12 fold	0.62 ± 0.07		reduced CYP3A4 inhibition	36%	
CC1(C)CC[C@]2(c3noc(CN)n3)CC[C@]3(C)[C@H](C(=O)C=C4[C@@]5(C)C=C(C#N)C(=O)C(C)(C)[C@@H]5CC[C@]43C)[C@@H]2C1 [Compound T2]	1.21 ± 1.15 nM	0.47 ± 0.38 fold	21.4%	0.28 ± 0.04 fold		3.67 ± 0.28 nM	1.15 nM	0.38 ± 0.09 fold	0.43 ± 0.00		reduced CYP3A4 inhibition	53%	
CC1(C)CC[C@]2(c3noc(C(F)F)n3)CC[C@]3(C)[C@H](C(=O)C=C4[C@@]5(C)C=C(C#N)C(=O)C(C)(C)[C@@H]5CC[C@]43C)[C@@H]2C1 [Compound T41]	4.85 ± 0.36 nM	2.38 ± 0.29 fold		1.52 ± 0.19 fold		24.2 ± 3.36 nM	9.84 ± 3.52 nM	2.79 ± 0.64 fold					
CC1(C)CC[C@]2(c3nc(C(F)F)no3)CC[C@]3(C)[C@H](C(=O)C=C4[C@@]5(C)C=C(C#N)C(=O)C(C)(C)[C@@H]5CC[C@]43C)[C@@H]2C1 [Compound T43]	3.29 ± 0.55 nM	1.60 ± 0.05 fold		0.62 ± 0.09 fold		9.92 ± 2.32 nM	6.45 ± 1.29 nM	1.90 ± 0.49 fold	1.09 ± 0.09				
CC1(C)CC[C@]2(c3nnc(C(F)F)o3)CC[C@]3(C)[C@H](C(=O)C=C4[C@@]5(C)C=C(C#N)C(=O)C(C)(C)[C@@H]5CC[C@]43C)[C@@H]2C1 [Compound T44]	2.05 ± 0.64 nM	1.04 ± 0.06 fold		0.57 ± 0.12 fold	0.91 ± 0.21	8.62 ± 0.45 nM	4.24 ± 2.23 nM	1.24 ± 0.04 fold					
CC1(C)CC[C@]2(c3nnc(C(F)(F)F)o3)CC[C@]3(C)[C@H](C(=O)C=C4[C@@]5(C)C=C(C#N)C(=O)C(C)(C)[C@@H]5CC[C@]43C)[C@@H]2C1 [Compound T45]	8 ± 1.37 nM	4.14 ± 0.35 fold		1.95 ± 0.57 fold		29.1 ± 2.09 nM	12.9 ± 6.38 nM	3.81 ± 0.34 fold					
CCc1nnc([C@]23CCC(C)(C)C[C@H]2[C@H]2C(=O)C=C4[C@@]5(C)C=C(C#N)C(=O)C(C)(C)[C@@H]5CC[C@@]4(C)[C@]2(C)CC3)o1 [Compound T46]	2.39 ± 0.29 nM	1.24 ± 0.17 fold		1.60 ± 0.44 fold		24 ± 1.5 nM	5.44 ± 2.81 nM	1.60 ± 0.29 fold					
COC(=O)[C@]12CCC(C)(C)C[C@H]1[C@H]1C(=O)C=C3[C@@]4(C)C=C(C#N)C(=O)C(C)(C)[C@@H]4CC[C@@]3(C)[C@]1(C)CC2 [RTA 402, Bardoxolone methyl, reference compound]													48.4%
CC1(C)CC[C@]2(NC(=O)C(C)(F)F)CC[C@]3(C)[C@H](C(=O)C=C4[C@@]5(C)C=C(C#N)C(=O)C(C)(C)[C@@H]5CC[C@]43C)[C@@H]2C1 [RTA 408, omaveloxolone, reference compound]													56.6%
